Assay results: patent US20260022122A1 (Checkmate Therapeutics Inc., priority 2022, published 2026)

Experiments:
NamPT = NamPT (Homo sapiens (Human), UniProt P43490); assay: Measurement of NamPT inhibitory ability IC50 (NamPT colorimetric assay kit, Abcam ab221819); format: biochemical; details: NamPT recombinant protein, WST-1 absorbance at 450 nm; class key in μM
Method: To test the effect of the compound prepared in each Example on the substrate decomposition rate (Vmax/min) mediated by NamPT enzyme, IC50 was calculated. In this experiment, the NamPT colorimetric assay kit (ab221819) produced by Abcam was used, and Graph prism software was used for IC50 calculation. PRPP, ATP, NMNAT1, NamPT recombinant proteins, and various concentrations of the compound of each Example (half-log step dilution from 100 μM) were added to nicotinamide to synthesize nicotinamide adenine dinucleotide (NAD) from the nicotinamide, and a total of 60 μL of the reaction solution was reacted at room temperature for 1 hour. WST-1 formazan converted by NAD generated by adding WST-1 was measured. The result of the reaction was obtained by the following formula by measuring absorbance using EnVision2105 (PerkinElmer) at 450 nm for 60 minutes at 2-minute intervals.
In Mathematical Formula 1, T1 and T2 are arbitrary times, and A1 and A2 represent the absorbance measured at T1 and T2 at 450 nm, respectively.
The results of measuring the NamPT inhibition activity of the compound of each Example obtained through the above experiment are shown in Table 1 in the unit of IC50 (nM), and the result values are expressed as follows.

[1] = test system: NAPRT negative lung cancer cell lines (H322, H661, H1155); assay: Proliferation inhibition on NAPRT negative lung cancer cell lines (CellTiter-Glo); format: cell-based; details: 72 hours
Method: (§1) A compound showing a low IC50 value was selected from the compounds of the above Examples and treated an NAPRT positive or negative lung cancer cell line with various concentrations, and then the change in cell viability for each cell line was measured. The results are presented in a graph (a few materials known as NamPT inhibitors were used as controls). A total of 9 cancer cells lines (three NAPRT negative cell lines: H322, H661, and H1155; and six NAPRT positive cell lines: H1993, H2122, H2030, H1975, H1299, and HBEC30) were used. 5% fetal bovine serum (Gibco, US) and 1% penicillin/streptomycin (Gibco) were added to a medium, and the cells were cultured in a 37° C. constant temperature incubator containing 5% CO2. For compound treatment, each type of cells were seeded at 3×10^3 cells/well in a 96-well plate (Corning) and then incubated in a 37° C. constant temperature incubator containing 5% CO2 for 18 hours. […] Afterwards, the cells were cultured in an incubator containing 5% CO2 at 37° C. for 72 hours. To confirm the effect of inhibiting the proliferation of cancer cells, a CellTiter-Glo Luminescent Cell Viability Assay (Promega) was used. After treating the cells with 10 μL of CellTiter-Glo luciferase reagent and leaving them for 15 minutes at room temperature, the luminescence of each well was measured using EnVision2105 (PerkinElmer). The change in cell viability by the compound diluted at the concentration of each step was converted into a relative % value for the amount of luminescence shown by DMSO treatment. EC50 is expressed as the concentration of each compound that induces 50% of the maximum luminescence level.
(§2) The results of measuring the proliferation inhibition ability of the compound of each Example on nine types of lung cancer cell lines, obtained through the above experiment, are shown in Table 2 in the unit of EC50 (μM). The resulting values are expressed as follows.

[2] = test system: NAPRT positive cell lines (H1993, H2122, H2030, H1975, H1299, HBEC30); assay: Proliferation inhibition on NAPRT positive lung cancer cell lines (CellTiter-Glo); format: cell-based; details: 72 hours
Method: as §1, §2

[3] = test system: NAPRT-negative gastric cancer cell line HGC27; assay: NAPRT-negative cancer cell xenograft model (% tumor growth inhibition); format: in vivo; details: 50 mg/kg, orally once a day from day 1 to day 21, HGC27 xenograft in BALB/c nude mice
From the text: Based on the effect of inhibiting proliferation limited to NAPRT-negative cancer cell lines according to the experiment of the proliferation inhibitory effect (EC50) on NAPRT-negative cancer cell lines, the pharmacological effect in a xenograft model using NAPRT-negative cancer cell lines was verified. Five-week-old female BALB/c nude mice were purchased and used in the experiment after acclimation for one week. The cancer cells used in the experiment were a NAPRT-negative gastric cancer cell line HGC27, and cultured in […] medium (Gibco) to which 5% Fetal Bovine Serum (Gibco, US) and 1% penicillin/streptomycin (Gibco) were added. HGC27 was suspended in PBS (Welgene) and transplanted to have 5×10^6 cells into each mouse. After adding Matrigel in the same value, tumors were induced by subcutaneous injection into the right flank using a 1 mL syringe. After 3 weeks of breeding, when the average tumor size was 100 to 150 mm^3, mice were randomly divided into groups of 7 and administered each compound. The compound was prepared in an excipient (0.5% DMSO/2% Tween 80/20% PEG 400/20% b-HPCD in 77.5% DW) as an agent for oral administration, and administered orally once a day from day 1 to day 21 to the mouse model in which a tumor was generated. From day 1 to day 21, the body weight was measured once daily, and the tumor size was measured three times a week. The tumor size was measured using a caliper and calculated using the following formula.
In Mathematical Formula 2, W is a length, and d is a width.
On day 21, all animals were euthanized, blood samples were collected, and tumors were removed. To evaluate blood toxicity, blood was collected from an EDTA-containing blood collection tube, and subjected to a general blood test (complete blood count, CBC) and a blood biochemical test. Isolated tumors were weighed after photographing and a portion was used to measure NAD to verify the on-target efficacy of the compound. To measure NAD, a NAD/NADH Quantitation Colorimetric Kit (K337) produced by BioVision was used.
The pharmacological effect of each compound in the NAPRT-negative cancer cell xenograft models, obtained in this experiment, is shown in Table 3 in the unit of % TGI (tumor growth inhibition).

NamPT, sequence (P43490 whole entry): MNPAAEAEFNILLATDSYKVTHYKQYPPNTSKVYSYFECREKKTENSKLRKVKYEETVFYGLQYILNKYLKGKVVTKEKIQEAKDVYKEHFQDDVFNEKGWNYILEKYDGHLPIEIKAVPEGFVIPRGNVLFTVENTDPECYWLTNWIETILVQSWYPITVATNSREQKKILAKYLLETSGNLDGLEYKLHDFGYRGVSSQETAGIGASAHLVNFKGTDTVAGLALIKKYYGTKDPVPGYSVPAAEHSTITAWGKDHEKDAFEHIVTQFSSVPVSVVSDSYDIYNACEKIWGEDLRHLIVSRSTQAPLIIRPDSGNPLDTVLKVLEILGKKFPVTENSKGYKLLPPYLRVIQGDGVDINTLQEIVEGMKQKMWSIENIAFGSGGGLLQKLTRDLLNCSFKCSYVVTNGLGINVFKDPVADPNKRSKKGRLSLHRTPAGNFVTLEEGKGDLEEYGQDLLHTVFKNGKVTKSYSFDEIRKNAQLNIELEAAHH

| IC50 (NamPT) [µM] | EC50 [1] [µM] | EC50 [2] [µM] | SMILES | % TGI (Tumor Growth inhibition) [3] [%] |
| --- | --- | --- | --- | --- |
| < 0.05 | < 0.05 | > 101 | O=C(NCc1ccc(-c2nc3cc(C(F)(F)F)ccc3o2)cc1)c1cnc2nccn2c1 [Example 13, N-[[4-[5-(trifluoromethyl)-1,3-benzoxazol-2-yl]phenyl]methyl]imidazo[1,2-a]pyrimidin-6-carboxamide] | 63 |
| < 0.05 | < 0.05 | > 101 | Cc1cc2nc(-c3ccc(CNC(=O)c4cnc5nccn5c4)cc3)oc2cc1Cl [Example 10, N-[[4-(6-chloro-5-methyl-1,3-benzoxazol-2-yl)phenyl]methyl]imidazo[1,2-a]pyrimidin-6-carboxamide] | 61 |
